Measured values as given in patent publication US10544129B2, “Crystalline forms of AP26113, and preparation method thereof” (Crystal Pharmatech Co., Ltd., priority 2016, dated 2020).
Converted amounts (≈) assume the structure as drawn. Read-outs that look alike come from different tables or passages of the source.

How the values were obtained:
Format in all cases: physicochemical
[1] = Dissolution study (intrinsic dissolution rate, rotating disk); conditions: for Cumulative dissolution: phosphate buffer pH 6.8, 37° C.; for intrinsic dissolution rate: linear fit of cumulative dissolution with time, phosphate buffer pH 6.8
Procedure: The dissolution data were collected on an Agilent 708-DS.
100 mg of Form CS2 and Form A were added into the die of intrinsic dissolution rate (IDR) tooling, and then compressed at 12 KN for 1 min.
Dissolution medium: phosphate buffer (pH 6.8)
Dissolution method: rotating disk
Revolving speed: 1000 rpm
Medium temperature: 37° C.

Particle size study = experiment: Particle size study
Procedure: Particle size distribution of Forms CS1 and Form CS2 of the present disclosure and Form A of the prior art are tested. The average particle size of Form A is 12.58 μm, which is too small to be isolated effectively in the crystallization process. The Average particle sizes of Forms CS1 and Form CS2 are 175.0 μm and 151.9 μm, which are much larger than that of Form A. Compared with Form A, Form CS1 and Form CS2 with large particle size have less electrostatic attraction and can be separated more easily during the crystallization process. Moreover, the mixing non uniformity in the preparation process can be avoided, the quality of the drug is more controllable. At the same time, the crystal growth of the large particle size crystals is more perfect, and the adsorption of the solvent or the impurity on the crystals can be avoided, which is more helpful for purification.

[2] = Solubility study in FaSSIF and SGF (saturated solutions, HPLC); conditions: for solubility at 1 h / solubility at 4 h: thermodynamic from solid
Procedure: Samples of Form CS2 of the present disclosure and Form A were suspended in FaSSIF (Fasted state simulated intestinal fluids) and SGF (Simulated gastric fluids) to get saturated solutions. The concentrations of the saturated solutions were measured by high performance liquid chromatography (HPLC) at fixed time points.

[3] = Solubility study in H2O (saturated solutions, HPLC)
Procedure: Samples of Form CS1 of this present disclosure and Form A were suspended in H2O to get saturated solutions. After equilibrated for 1 h and 4 hours, the concentrations of the saturated solutions were measured by high performance liquid chromatography (HPLC).

[4] = Stability study at 25° C./60% RH (XRPD, purity); conditions: one month and three months
Procedure: Approximately 10 mg of Form CS2 were stored in a temperature and humidity controlled chamber at 25° C./60% RH, and samples were taken for XRPD at the beginning and after stored for one month and three months. The results are as depicted in FIG. 13.

| Cumulative dissolution ([1]; 10 min) | Cumulative dissolution ([1]; 15 min) | Cumulative dissolution ([1]; 20 min) | Cumulative dissolution ([1]; 25 min) | Cumulative dissolution ([1]; 30 min) | intrinsic dissolution rate [1] | average particle size (Particle size study) | solubility in SGF (in words) ([2]; SGF) | Solubility H2O ([3]; 1 h) | Solubility H2O ([3]; 4 h) | SMILES | other results |
| --- | --- | --- | --- | --- | --- | --- | --- | --- | --- | --- | --- |
| 0.6 mg | 0.9 mg | 1.1 mg | 1.4 mg | 1.6 mg | 0.052 mg/min | 12.58 μm | good solubility | 0.061 mg/mL (≈ 0.104 mM) | 0.067 mg/mL (≈ 0.115 mM) | COc1cc(N2CCC(N3CCN(C)CC3)CC2)ccc1Nc1ncc(Cl)c(Nc2ccccc2P(C)(C)=O)n1 [Form A, AP26113] | Solubility FaSSIF ([2]; FaSSIF, 1 h): 6.9 mg/mL (≈ 11.8 mM); Solubility FaSSIF ([2]; FaSSIF, 4 h): 7.2 mg/mL (≈ 12.3 mM); Solubility SGF ([2]; SGF, 1 h): 10.9 mg/mL (≈ 18.7 mM); Solubility SGF ([2]; SGF, 4 h): 10.9 mg/mL (≈ 18.7 mM); solubility in water (in words) ([3]; water): poor |
|  |  |  |  |  |  | 175.0 μm |  | 1.0 mg/mL (≈ 1.71 mM) | 0.61 mg/mL (≈ 1.04 mM) | COc1cc(N2CCC(N3CCN(C)CC3)CC2)ccc1Nc1ncc(Cl)c(Nc2ccccc2P(C)(C)=O)n1 [Form CS1, AP26113] | solubility in water, times higher than that of Form A ([3]; water, relative to Form A): 16 times |
| 6.4 mg | 8.0 mg | 9.4 mg | 10.7 mg | 11.8 mg | 0.268 mg/min | 151.9 μm | good solubility |  |  | COc1cc(N2CCC(N3CCN(C)CC3)CC2)ccc1Nc1ncc(Cl)c(Nc2ccccc2P(C)(C)=O)n1 [Form CS2, AP26113] | dissolution rate, times higher than that of Form A ([1]; relative to Form A): 5 times; solubility higher than that of Form A ([2]; FaSSIF, one hour, relative to Form A): 43%; solubility at 1 h ([2]; FaSSIF, FaSSIF, 1 h, read-out: Solubility FaSSIF): 9.9 mg/mL (≈ 16.9 mM); solubility at 4 h ([2]; FaSSIF, FaSSIF, 4 h, read-out: Solubility FaSSIF): 9.6 mg/mL (≈ 16.4 mM); solubility at 1 h ([2]; SGF, simulated gastric fluid, SGF, 1 h, read-out: Solubility SGF): 11.2 mg/mL (≈ 19.2 mM); solubility at 4 h ([2]; SGF, simulated gastric fluid, SGF, 4 h, read-out: Solubility SGF): 12.1 mg/mL (≈ 20.7 mM); purity after storage ([4]; beginning): above 99%; crystalline form after storage (XRPD) [4]: doesn't change |
